Data as given in patent US12215140B2, “Method of stabilizing protein contained in specimen and solution for stabilizing protein contained in specimen” (EIKEN KAGAKU KABUSHIKI KAISHA, priority 2018, dated 2025).

System: hemoglobin-haptoglobin complex
Test: Stability of hemoglobin (as hemoglobin-haptoglobin complex) in samples preserved at 37° C. in preservation solution containing 1 unit/L haptoglobin, Hb measured by latex agglutination method (Examples 1 to 7)
Parameters: species or system human
Conditions: for Hb concentration / Recovery ratio with respect to Hb concentration after 0 days: 37° C.
Procedure, shortened: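 Hemoglobin (~300 µg/L) in 0.5% fecal suspension, or without feces, held at 37 °C for 0–21 days in 40 mmol/L HEPES pH 6.8, 0.1% BSA, 0.1% NaN3, 1 unit/L haptoglobin, with 0–100 mmol/L phenylboronic acid ± sugars. Hb quantified by latex agglutination with anti-human Hb rabbit polyclonal; recovery (%) relative to day 0.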

[1] = Feces 1, sugar 50 mmol/L + phenylboronic acid 15 mmol/L, 0 days
[2] = Feces 1, sugar 50 mmol/L + phenylboronic acid 15 mmol/L, 7 days
[3] = Feces 1, sugar 50 mmol/L + phenylboronic acid 15 mmol/L, 14 days
[4] = Feces 1, sugar 50 mmol/L + phenylboronic acid 15 mmol/L, 21 days
[5] = Feces 1, sugar 100 mmol/L + phenylboronic acid 15 mmol/L, 0 days
[6] = Feces 1, sugar 100 mmol/L + phenylboronic acid 15 mmol/L, 7 days
[7] = Feces 1, sugar 100 mmol/L + phenylboronic acid 15 mmol/L, 14 days
[8] = Feces 1, sugar 100 mmol/L + phenylboronic acid 15 mmol/L, 21 days
[9] = Feces 1, sugar 100 mmol/L, no phenylboronic acid, 0 days
[10] = Feces 1, sugar 100 mmol/L, no phenylboronic acid, 7 days
[11] = Feces 1, sugar 100 mmol/L, no phenylboronic acid, 14 days
[12] = Feces 1, sugar 100 mmol/L, no phenylboronic acid, 21 days
[13] = Feces 2, sugar 50 mmol/L + phenylboronic acid 15 mmol/L, 0 days
[14] = Feces 2, sugar 50 mmol/L + phenylboronic acid 15 mmol/L, 7 days
[15] = Feces 2, sugar 50 mmol/L + phenylboronic acid 15 mmol/L, 14 days
[16] = Feces 2, sugar 50 mmol/L + phenylboronic acid 15 mmol/L, 21 days
[17] = Feces 2, sugar 100 mmol/L + phenylboronic acid 15 mmol/L, 0 days
[18] = Feces 2, sugar 100 mmol/L + phenylboronic acid 15 mmol/L, 7 days
[19] = Feces 2, sugar 100 mmol/L + phenylboronic acid 15 mmol/L, 14 days
[20] = Feces 2, sugar 100 mmol/L + phenylboronic acid 15 mmol/L, 21 days
[21] = Feces 2, sugar 100 mmol/L, no phenylboronic acid, 0 days
[22] = Feces 2, sugar 100 mmol/L, no phenylboronic acid, 7 days
[23] = Feces 2, sugar 100 mmol/L, no phenylboronic acid, 14 days
[24] = Feces 2, sugar 100 mmol/L, no phenylboronic acid, 21 days
[25] = Feces 3, sugar 50 mmol/L + phenylboronic acid 15 mmol/L, 0 days
[26] = Feces 3, sugar 50 mmol/L + phenylboronic acid 15 mmol/L, 7 days
[27] = Feces 3, sugar 50 mmol/L + phenylboronic acid 15 mmol/L, 14 days
[28] = Feces 3, sugar 50 mmol/L + phenylboronic acid 15 mmol/L, 21 days
[29] = Feces 3, sugar 100 mmol/L + phenylboronic acid 15 mmol/L, 0 days
[30] = Feces 3, sugar 100 mmol/L + phenylboronic acid 15 mmol/L, 7 days
[31] = Feces 3, sugar 100 mmol/L + phenylboronic acid 15 mmol/L, 14 days
[32] = Feces 3, sugar 100 mmol/L + phenylboronic acid 15 mmol/L, 21 days
[33] = Feces 3, sugar 100 mmol/L, no phenylboronic acid, 0 days
[34] = Feces 3, sugar 100 mmol/L, no phenylboronic acid, 7 days
[35] = Feces 3, sugar 100 mmol/L, no phenylboronic acid, 14 days
[36] = Feces 3, sugar 100 mmol/L, no phenylboronic acid, 21 days
[37] = No feces, sugar 50 mmol/L + phenylboronic acid 15 mmol/L, 0 days
[38] = No feces, sugar 50 mmol/L + phenylboronic acid 15 mmol/L, 7 days
[39] = No feces, sugar 50 mmol/L + phenylboronic acid 15 mmol/L, 14 days
[40] = No feces, sugar 50 mmol/L + phenylboronic acid 15 mmol/L, 21 days
[41] = No feces, sugar 100 mmol/L + phenylboronic acid 15 mmol/L, 7 days
[42] = No feces, sugar 100 mmol/L + phenylboronic acid 15 mmol/L, 14 days
[43] = No feces, sugar 100 mmol/L + phenylboronic acid 15 mmol/L, 21 days
[44] = No feces, sugar 100 mmol/L, no phenylboronic acid, 0 days
[45] = No feces, sugar 100 mmol/L, no phenylboronic acid, 7 days
[46] = No feces, sugar 100 mmol/L, no phenylboronic acid, 14 days
[47] = No feces, sugar 100 mmol/L, no phenylboronic acid, 21 days

O=C(CO)[C@@H](O)[C@H](O)[C@H](O)CO [Fructose, fructose]
Hb concentration [1]: 297 µg/L | Recovery ratio with respect to Hb concentration after 0 days [1]: 100% | Hb concentration [2]: 294 µg/L | Recovery ratio with respect to Hb concentration after 0 days [2]: 99% | Hb concentration [3]: 285 µg/L | Recovery ratio with respect to Hb concentration after 0 days [3]: 96% | Hb concentration [4]: 280 µg/L | Recovery ratio with respect to Hb concentration after 0 days [4]: 94% | Hb concentration [5]: 287 µg/L | Recovery ratio with respect to Hb concentration after 0 days [5]: 100% | Hb concentration [6]: 276 µg/L | Recovery ratio with respect to Hb concentration after 0 days [6]: 96% | Hb concentration [7]: 247 µg/L | Recovery ratio with respect to Hb concentration after 0 days [7]: 86% | Hb concentration [8]: 228 µg/L | Recovery ratio with respect to Hb concentration after 0 days [8]: 79% | Hb concentration [9]: 285 µg/L | Recovery ratio with respect to Hb concentration after 0 days [9]: 100% | Hb concentration [10]: 127 µg/L | Recovery ratio with respect to Hb concentration after 0 days [10]: 45% | Hb concentration [11]: 85 µg/L | Recovery ratio with respect to Hb concentration after 0 days [11]: 30% | Hb concentration [12]: 81 µg/L | Recovery ratio with respect to Hb concentration after 0 days [12]: 28% | Hb concentration [13]: 270 µg/L | Recovery ratio with respect to Hb concentration after 0 days [13]: 100% | Hb concentration [14]: 275 µg/L | Recovery ratio with respect to Hb concentration after 0 days [14]: 102% | Hb concentration [15]: 243 µg/L | Recovery ratio with respect to Hb concentration after 0 days [15]: 90% | Hb concentration [16]: 222 µg/L | Recovery ratio with respect to Hb concentration after 0 days [16]: 82% | Hb concentration [17]: 280 µg/L | Recovery ratio with respect to Hb concentration after 0 days [17]: 100% | Hb concentration [18]: 264 µg/L | Recovery ratio with respect to Hb concentration after 0 days [18]: 94% | Hb concentration [19]: 235 µg/L | Recovery ratio with respect to Hb concentration after 0 days [19]: 84% | Hb concentration [20]: 212 µg/L | Recovery ratio with respect to Hb concentration after 0 days [20]: 76% | Hb concentration [21]: 273 µg/L | Recovery ratio with respect to Hb concentration after 0 days [21]: 100% | Hb concentration [22]: 100 µg/L | Recovery ratio with respect to Hb concentration after 0 days [22]: 37% | Hb concentration [23]: 56 µg/L | Recovery ratio with respect to Hb concentration after 0 days [23]: 21% | Hb concentration [24]: 35 µg/L | Recovery ratio with respect to Hb concentration after 0 days [24]: 13% | Hb concentration [25]: 272 µg/L | Recovery ratio with respect to Hb concentration after 0 days [25]: 100% | Hb concentration [26]: 238 µg/L | Recovery ratio with respect to Hb concentration after 0 days [26]: 88% | Hb concentration [27]: 218 µg/L | Recovery ratio with respect to Hb concentration after 0 days [27]: 80% | Hb concentration [28]: 203 µg/L | Recovery ratio with respect to Hb concentration after 0 days [28]: 75% | Hb concentration [29]: 276 µg/L | Recovery ratio with respect to Hb concentration after 0 days [29]: 100% | Hb concentration [30]: 244 µg/L | Recovery ratio with respect to Hb concentration after 0 days [30]: 88% | Hb concentration [31]: 222 µg/L | Recovery ratio with respect to Hb concentration after 0 days [31]: 80% | Hb concentration [32]: 204 µg/L | Recovery ratio with respect to Hb concentration after 0 days [32]: 74% | Hb concentration [33]: 265 µg/L | Recovery ratio with respect to Hb concentration after 0 days [33]: 100% | Hb concentration [34]: 83 µg/L | Recovery ratio with respect to Hb concentration after 0 days [34]: 31% | Hb concentration [35]: 41 µg/L | Recovery ratio with respect to Hb concentration after 0 days [35]: 15% | Hb concentration [36]: 39 µg/L | Recovery ratio with respect to Hb concentration after 0 days [36]: 15% | Hb concentration [37]: 286 µg/L | Recovery ratio with respect to Hb concentration after 0 days [37]: 100% | Hb concentration [38]: 255 µg/L | Recovery ratio with respect to Hb concentration after 0 days [38]: 89% | Hb concentration [39]: 261 µg/L | Recovery ratio with respect to Hb concentration after 0 days [39]: 91% | Hb concentration [40]: 275 µg/L | Recovery ratio with respect to Hb concentration after 0 days [40]: 96% | Recovery ratio with respect to Hb concentration after 0 days (No feces, sugar 100 mmol/L + phenylboronic acid 15 mmol/L, 0 days): 100% | Hb concentration [41]: 245 µg/L | Recovery ratio with respect to Hb concentration after 0 days [41]: 87% | Hb concentration [42]: 251 µg/L | Recovery ratio with respect to Hb concentration after 0 days [42]: 89% | Hb concentration [43]: 262 µg/L | Recovery ratio with respect to Hb concentration after 0 days [43]: 93% | Hb concentration [44]: 250 µg/L | Recovery ratio with respect to Hb concentration after 0 days [44]: 100% | Hb concentration [45]: 215 µg/L | Recovery ratio with respect to Hb concentration after 0 days [45]: 86% | Hb concentration [46]: 196 µg/L | Recovery ratio with respect to Hb concentration after 0 days [46]: 78% | Hb concentration [47]: 177 µg/L | Recovery ratio with respect to Hb concentration after 0 days [47]: 71% | recovery ratio of hemoglobin in the samples containing fecal specimens (sugar 100 mmol/L, preservation solutions containing no phenylboronic acid): does not improve | recovery ratio of hemoglobin in the sample (sugar 50 or 100 mmol/L further added to phenylboronic acid 15 mmol/L, Feces 1, Feces 2, Feces 3): further improved
